Results from patent publication US20160136284A1, “GLIOMA TREATMENT” (priority 2012, published 2016).

Experiment: Coinfusion of carboplatin and gadolinium-DTPA into pig corona radiata (T1 MRI, LA-ICP-MS)
Assay type: in vivo
Details: carboplatin 0.03 mg/ml coinfused with 0.3% gadolinium-DTPA, CED
Experimental: Carboplatin infusions were undertaken into male Large White Landrace pigs weighing 45 kg using a cannula system developed in-house. Pig anaesthesia, head immobilisation and brain imaging were achieved as we have previously described White et al (2010). Infusions of 120 μl 0.03 mg/ml carboplatin mixed with 0.3% (6 μmol/l) Gadolinium-DTPA (Magnevist: Bayer Healthcare, Germany), were undertaken bilaterally into the corona radiata using a cannula composed of a length of fused silica (outer diameter 220 μm, inner diameter 150 μm) bonded to a glass Hamilton syringe. Except for the distal 3 mm, this fused silica tube was supported along its length by a series of zirconia tubes to ensure that it could be accurately inserted to target. Infusions were performed using the following regime: 0.5 μl/min for 5 min, 1 μl/min for 5 min, 2.5 μl/min for 5 min and then 5 μl/min for 20 min. This regime was employed in an attempt to minimise the occurrence of a sudden surge in pressure at the catheter tip due to elasticity in the infusion tubing. 120 μl was infused as this is the largest volume that we have previously infused into pig white matter without leakage into the ventricular system. Following infusion completion, the cannula was left in place for 10 min prior to being withdrawn slowly by hand. CSF leakage from the burr hole and cannula track was sealed with Cerebond prior to wound closure. […]

Gadolinium-DTPA
distribution in pig corona radiata (LA-ICP-MS): distributed over a larger volume of brain than carboplatin
